# Values of other authors in patent publication US20240156749A1, “Pre And Post Natal Compositions Including Carotenoids” (Maravilla, LLC, priority 2022, published 2024).
# Test system: oxygen-induced retinopathy
# Details: mouse model of retinopathy of prematurity; prenatal supplementation
row,SMILES,inhibition of oxygen-induced retinopathy
1,CC1=C(/C=C/C(C)=C/C=C/C(C)=C/C=C/C=C(C)/C=C/C=C(C)/C=C/C2=C(C)C[C@@H](O)CC2(C)C)C(C)(C)C[C@H](O)C1 [zeaxanthin],significantly inhibits oxygen-induced retinopathy
2,CC1=C[C@H](O)CC(C)(C)[C@H]1/C=C/C(C)=C/C=C/C(C)=C/C=C/C=C(C)/C=C/C=C(C)/C=C/C1=C(C)C[C@@H](O)CC1(C)C [lutein],significantly inhibits oxygen-induced retinopathy
